Results on 14 compounds are retold here after patent US10322131B2, “Hydroxyacid derivatives, a process for their preparation and pharmaceutical compositions containing them” (LES LABORATOIRES SERVIER, priority 2015, dated 2019).

For experiment [1], the target named is Mcl-1 protein (Homo sapiens, UniProt Q07820). In words: Inhibition of Mcl-1 by the fluorescence polarisation technique. Format: binding. As to conditions: fluorescence polarisation test; Fluorescein labelled ligand 1 nM, Mcl-1 protein 5 nM, ~2 hours at r.t.; read-out: IC50 (M) Mcl-1 FP. The protocol: The relative binding potency of each compound was determined via Fluorescence Polarisation (FP). The method utilised a Fluorescein labelled ligand (Fluorescein-βAla-Ahx-A-REIGAQLRRMADDLNAQY-OH; mw 2,765) which binds to the Mcl-1 protein (such that Mcl-1 corresponds to the UniProtKB® primary accession number: Q07820) leading to an increased anisotropy measured in milli-polarisation (mP) units using a reader. The addition of a compound which binds competitively to the same site as the ligand will result in a greater proportion of unbound ligand in the system indicated by a decrease in mP units.
An 11 point serial dilution of each compound was prepared in DMSO and 2 μl transferred into flat bottomed, low binding, 384-well plate (final DMSO concentration 5%). 38 μl of buffer (10 mM 4-(2-hydroxyethyl)-1-piperazineethanesulfonic acid [HEPES], 150 mM NaCl, 0.05% Tween 20, pH 7.4), containing the Fluorescein labelled ligand (final concentration 1 nM) and Mcl-1 protein (final concentration 5 nM) was then added.
Assay plates were incubated ˜2 hours at r.t. before FP was measured on a Biomek Synergy2 reader (Ex. 528 nm, Em. 640 nm, Cut off 510 nm) and mP units calculated. The binding of increasing doses of test compound was expressed as a percentage reduction in mP compared to a window established between ‘5% DMSO only’ and ‘100% inhibition’ controls. 11-point dose response curves were plotted with XL-Fit software using a 4-Parameter Logistic Model (Sigmoidal Dose-Response Model) and the inhibitory concentrations that gave a 50% reduction in mP (IC50) were determined.
In general terms: Polarisation of emitted light reports the rotation of a fluorescent probe.

Experiment [2] concerns H929 cells. The experiment can be described thus: In vitro cytotoxicity (MTT) on H929 multiple myeloma tumour line. In kind it is cell-based. As to conditions: Homo sapiens, NCI-H929, exposed 48 hours, Microculture Tetrazolium Assay. The protocol: The cytotoxicity studies were carried out on the H929 multiple myeloma tumour line.
The cells are distributed onto microplates and exposed to the test compounds for 48 hours.
The cell viability is then quantified by a colorimetric assay, the Microculture Tetrazolium Assay (Cancer Res., 1987, 47, 939-942).

SMILES strings stand for the structures.

Sequence of Mcl-1 protein (Q07820 whole entry): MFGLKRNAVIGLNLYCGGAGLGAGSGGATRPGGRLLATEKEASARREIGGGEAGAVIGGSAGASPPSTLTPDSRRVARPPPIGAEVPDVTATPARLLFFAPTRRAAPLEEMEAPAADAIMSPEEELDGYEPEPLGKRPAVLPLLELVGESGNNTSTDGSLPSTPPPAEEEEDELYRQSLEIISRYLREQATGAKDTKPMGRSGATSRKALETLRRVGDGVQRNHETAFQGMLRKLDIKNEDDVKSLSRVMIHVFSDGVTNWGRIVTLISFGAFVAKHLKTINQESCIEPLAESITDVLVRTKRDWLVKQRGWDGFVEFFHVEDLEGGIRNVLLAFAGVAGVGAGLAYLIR

Take `COC1OC(COc2cccc(-c3nccc(COc4ccccc4CC(Oc4ncnc5sc(-c6ccc(F)cc6)c(-c6ccc(OCCN7CCN(C)CC7)c(Cl)c6C)c45)C(=O)O)n3)c2)C(OC)C(OC)C1OC` [Example 17, methyl 6-O-{3-[4-({2-[(2R)-2-carboxy-2-{[(5Sa)-5-{3-chloro-2-methyl-4-[2-(4methylpiperazin-1-yl)ethoxy]phenyl}-6-(4-fluorophenyl)thieno[2,3-d]pyrimidin-4-yl]oxy}ethyl]phenoxy}methyl)pyrimidin-2-yl]phenyl}-2,3,4-tri-O-methyl-α-D-mannopyranoside]: the figures for the IC50 in experiment [1] and in experiment [2] were 4.8e-09 M and 3.03 nM, respectively.
Regarding `Cc1c(-c2c(-c3ccc(F)cc3)sc3ncnc(OC(Cc4ccccc4OCc4ccnc(-c5cccc(COC(=O)NCCN6CCCC6)c5)n4)C(=O)O)c23)ccc(OCCN2CCN(C)CC2)c1Cl` [Example 44, (2R)-2-{[(5Sa)-5-{3-chloro-2-methyl-4-[2-(4-methylpiperazin-1-yl)ethoxy]phenyl}-6-(4-fluorophenyl)thieno[2,3-d]pyrimidin-4-yl]oxy}-3-{2-[(2-{3-[({[2-(pyrrolidin-1-yl)ethyl]carbamoyl}oxy)methyl]phenyl}pyrimidin-4-yl)methoxy]phenyl}propanoic acid], the figures for the 50% inhibitory concentration (IC50) in experiment [1] and in experiment [2] were 3.7e-09 M and 28.7 nM, respectively.
In the case of `Cc1c(-c2c(-c3ccc(F)cc3)sc3ncnc(OC(Cc4ccccc4OCc4ccnc(-c5ccc(CO)cc5)n4)C(=O)O)c23)ccc(OCCN2CCN(C)CC2)c1Cl` [Example 4, (2R)-2-{[(5Sa)-5-{3-chloro-2-methyl-4-[2-(4-methylpiperazin-1-yl)ethoxy]phenyl}-6-(4-fluorophenyl)thieno[2,3-d]pyrimidin-4-yl]oxy}-3-[2-({2-[4-hydroxymethyl)phenyl]pyrimidin-4-yl}methoxy)phenyl]propanoic acid], the IC50 in experiment [1] turned out to be 4.9e-09 M; in experiment [2], 3.64 nM.
For the compound `Cc1c(-c2c(-c3ccc(F)cc3)sc3ncnc(OC(Cc4ccccc4OCc4ccnc(-c5cccc(OCC(O)CO)c5)n4)C(=O)O)c23)ccc(OCCN2CCN(C)CC2)c1Cl` [Example 47, (2R)-2-{[(5Sa)-5-{3-chloro-2-methyl-4-[2-(4-methylpiperazin-1-yl)ethoxy]phenyl}-6-(4-fluorophenyl)thieno[2,3-d]pyrimidin-4-yl]oxy}-3-[2-({2-[3-(2,3-dihydroxypropoxy)phenyl]pyrimidin-4-yl}methoxy)phenyl]propanoic acid], the IC50 in experiment [1] was 4.05e-09 M; in experiment [2] it was 18.2 nM.
Take `Cc1c(-c2c(-c3ccc(F)cc3)sc3ncnc(OC(Cc4ccccc4OCc4ccnc(-c5ccc(CCO)cc5)n4)C(=O)O)c23)ccc(OCCN2CCN(C)CC2)c1Cl` [Example 24, (2R)-2-{[(5Sa)-5-{3-chloro-methyl-4-[2-(4methylpiperazin-1-yl)ethoxy]phenyl}-6-(4-fluorophenyl)thieno[2,3-d]pyrimidin-4-yl]oxy}-3-[2-({2-[4-(2-hydroxyethyl)phenyl]pyrimidin-4-yl}methoxy)phenyl]propanoic acid]: the results for the IC50 in experiment [1] and in experiment [2] were 3.15e-09 M and 2.55 nM, respectively.
With `COCCOCCOc1ccc(-c2nccc(COc3ccccc3CC(Oc3ncnc4sc(-c5ccc(F)cc5)c(-c5ccc(OCCN6CCN(C)CC6)c(Cl)c5C)c34)C(=O)O)n2)cc1` [Example 31, (2R)-2-{[(5Sa)-5-{3-chloro-2-methyl-4-[2-(4-methylpiperazin-1-yl)ethoxy]phenyl}-6-(4-fluorophenyl)thieno[2,3-d]pyrimidin-4-yl]oxy}-3-{2-[(2-{4-[2-(2-methoxyethoxy)ethoxy]phenyl}pyrimidin-4-yl)methoxy]phenyl}propanoic acid], the IC50 was 3.85e-09 M in experiment [1] and 1.68 nM in experiment [2].
For `Cc1c(-c2c(-c3ccc(F)cc3)sc3ncnc(OC(Cc4ccccc4OCc4ccnc(-c5cccc(COC(=O)N6CCOCCOCCOCCOCCOCC6)c5)n4)C(=O)O)c23)ccc(OCCN2CCN(C)CC2)c1Cl` [Example 46, (2R)-2-{[(5Sa)-5-{3-chloro-2-methyl-4-[2-(4-methylpiperazin-1-yl)ethoxy]phenyl}-6-(4-fluorophenyl)thieno[2,3-d]pyrimidin-4-yl]oxy}-3-(2-{[2-(3-{[(1,4,7,10,13-pentaoxa-16-azacyclooctadecan-16-ylcarbonyl)oxy]methyl}phenyl)pyrimidin-4-yl]methoxy}phenyl)propanoic acid], the 50% inhibitory concentration (IC50) was 2.55e-09 M in experiment [1] and 23.4 nM in experiment [2].
On the same counts, the results for `Cc1c(-c2c(-c3ccc(F)cc3)sc3ncnc(OC(Cc4ccccc4OCc4ccnc(-c5ccccc5OCC(O)CO)n4)C(=O)O)c23)ccc(OCCN2CCN(C)CC2)c1Cl` [Example 25, (2R)-2-{[(5Sa)-5-{3-chloro-2-methyl-4-[2-(4-methylpiperazin-1-yl)ethoxy]phenyl}-6-(4-fluorophenyl)thieno[2,3-d]pyrimidin-4-yl]oxy}-3-[2-({2-[2-(2,3-dihydroxypropoxy)phenyl]pyrimidin-4-}methoxy)phenyl]propanoic acid] are 3.45e-09 M and 10 nM.
For `COCC(COC)Oc1cccc(-c2nccc(COc3ccccc3CC(Oc3ncnc4sc(-c5ccc(F)cc5)c(-c5ccc(OCCN6CCN(C)CC6)c(Cl)c5C)c34)C(=O)O)n2)c1` [Example 13, (2R)-2-{[(5Sa)-5-{3-chloro-2-methyl-4-[2-(4-methylpiperazin-1-yl)ethoxy]phenyl}-6-(4fluorophenyl)thieno[2,3-d]pyrimidin-4-yl]oxy}-3-{2-[(2-{3-[(1,3-dimethoxypropan-2-yl)oxy]phenyl}pyrimidin-4-yl)methoxy]phenyl}propanoic acid], the IC50 is 5.1e-09 M in experiment [1] and 3.59 nM in experiment [2].
Turning to `Cc1c(-c2c(-c3ccc(F)cc3)sc3ncnc(OC(Cc4ccccc4OCc4ccnc(-c5ccc(OCCOCCO)cc5)n4)C(=O)O)c23)ccc(OCCN2CCN(C)CC2)c1Cl` [Example 32, (2R)-2-{[(5Sa)-5-{3-chloro-2-methyl-4-[2-(4-methylpiperazin-1-yl)ethoxy]phenyl}-6-(4-fluorophenl)thieno[2,3d]-pyrimidin-4-yl]oxy}-3-{2-[(2-{4-[2-(2-hydroxyethoxy)ethoxy]phenyl}pyrimidin-4-yl)methoxy]phenyl}propanoic acid], the figures for the IC50 in experiment [1] and in experiment [2] were 1.53e-08 M and 1.68 nM, respectively.
On to `Cc1c(-c2c(-c3ccc(F)cc3)sc3ncnc(OC(Cc4ccccc4OCc4ccnc(-c5cccc(COC(=O)NCCN6CCN(C)CC6)c5)n4)C(=O)O)c23)ccc(OCCN2CCN(C)CC2)c1Cl` [Example 41, (2R)-2-{[(5Sa)-5-{3-chloro-2-methyl-4-[2-(4-methylpiperazin-1-yl)ethoxy]phenyl}-6-(4-fluorophenyl)thieno[2,3-d]pyrimidin-4-yl]oxy}-3-{2-[(2-{3-[({[2-(4-methylpiperazin-1-yl)ethyl]carbamoyl}oxy)methyl]phenyl}pyrimidin-4-yl)methoxy]phenyl}propanoic acid], for which the IC50 in experiment [1] came to 3.45e-09 M; in experiment [2], 90.8 nM.
For `Cc1c(-c2c(-c3ccc(F)cc3)sc3ncnc(OC(Cc4ccccc4OCc4ccnc(-c5cccc(O)c5)n4)C(=O)O)c23)ccc(OCCN2CCN(C)CC2)c1Cl` [Example 1, (2R)-2-{[(5Sa)-5-{3-chloro-2-methyl-4-[2-(4-methylpiperazin-1-yl)ethoxy]phenyl}-6-(4-fluorophenyl)thieno[2,3-d]pyrimidin-4-yl]oxy}-3-(2-{[2-(3-hydroxyphenyl)pyrimidin-4-yl]methoxy}phenyl)propanoic acid], the IC50 came out at 8.4e-09 M in experiment [1] and 9.31 nM in experiment [2].
On the same counts, the results for `COCCN(CCOC)C(=O)OCc1cccc(-c2nccc(COc3ccccc3CC(Oc3ncnc4sc(-c5ccc(F)cc5)c(-c5ccc(OCCN6CCN(C)CC6)c(Cl)c5C)c34)C(=O)O)n2)c1` [Example 45, (2R)-3-[2-({2-[3-({[bis(2-methoxyethyl)carbamoyl]oxy}methyl)phenyl]pyrimidin-4-yl}methoxy)phenyl]-2-{[(5Sa)-5-{3-chloro-2-methyl-4-[2-(4-methylpiperazin-1-yl)ethoxy]phenyl}-6-(4-fluorophenyl)thieno[2,3-d]pyrimidin-4-yl]oxy}propanoic acid] are 3.2e-09 M and 4.58 nM.
As to `Cc1c(-c2c(-c3ccc(F)cc3)sc3ncnc(OC(Cc4ccccc4OCc4ccnc(-c5ccccc5COCC(O)CO)n4)C(=O)O)c23)ccc(OCCN2CCN(C)CC2)c1Cl` [Example 27, (2R)-2-{[(5Sa)-5-{3-chloro-2-methyl-4-[2-(4-methylpiperazin-1-yl)ethoxy]phenyl}-6-(4-fluorophenyl)thieno[2,3-d]pyrimidin-4-yl]oxy}-3-{2-[(2-{2-[(2,3-dihydroxypropoxy)methyl]phenyl}pyrimidin-4-yl)methoxy]phenyl}propanoic acid], the IC50 in experiment [1] came to 2.2e-09 M; in experiment [2], 13.9 nM.

One may read the IC50 as the concentration at which inhibition is half-maximal.
